Values joined by “and” are separate entries in the source; they are usually repeats but may differ in a detail not shown here. Identical values can stand only once. Toxic doses and inconclusive results are not listed.
Test system: P388 leukemia ip, CD2F1 mice, survival T/C
Test: NCI In Vivo Anticancer Drug Screen. Data for tumor model P388 Leukemia (intraperitoneal) in CD2F1 (CDF1) mice
Conditions: endpoint: median survival time, higher = longer survival
Outline: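 Mice carrying the transplanted tumor received test compound or vehicle. Survival was recorded in each group, and the value is the treated-group measurement divided by that of the vehicle-treated control group.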

[1] = dose: 60.0 mg/kg/injection, schedule: Q01DX005 (ip), vehicle: saline with Tween-80
[2] = dose: 120.0 mg/kg/injection, schedule: Q01DX005 (ip), vehicle: saline with Tween-80
[3] = dose: 240.0 mg/kg/injection, schedule: Q01DX005 (ip), vehicle: saline with Tween-80
[4] = dose: 100.0 mg/kg/injection, schedule: Q01DX009 (ip), vehicle: saline with Tween-80
[5] = dose: 200.0 mg/kg/injection, schedule: Q01DX009 (ip), vehicle: saline with Tween-80
[6] = dose: 6.25 mg/kg/injection, schedule: Q01DX009 (ip), vehicle: saline with Tween-80
[7] = dose: 25.0 mg/kg/injection, schedule: Q01DX009 (ip), vehicle: saline with Tween-80
[8] = dose: 50.0 mg/kg/injection, schedule: Q01DX009 (ip), vehicle: saline with Tween-80
[9] = dose: 100.0 mg/kg/injection, schedule: Q01DX001 (ip), vehicle: saline with Tween-80
[10] = dose: 60.0 mg/kg/injection, schedule: Q01DX005 (ip), vehicle: saline
[11] = dose: 120.0 mg/kg/injection, schedule: Q01DX005 (ip), vehicle: saline
[12] = dose: 240.0 mg/kg/injection, schedule: Q01DX005 (ip), vehicle: saline
[13] = dose: 50.0 mg/kg/injection, schedule: Q01DX005 (ip), vehicle: saline
[14] = dose: 100.0 mg/kg/injection, schedule: Q01DX005 (ip), vehicle: saline
[15] = dose: 25.0 mg/kg/injection, schedule: Q01DX005 (ip), vehicle: saline with Tween-80
[16] = dose: 50.0 mg/kg/injection, schedule: Q01DX005 (ip), vehicle: saline with Tween-80
[17] = dose: 100.0 mg/kg/injection, schedule: Q01DX005 (ip), vehicle: saline with Tween-80
[18] = dose: 200.0 mg/kg/injection, schedule: Q01DX005 (ip), vehicle: saline with Tween-80
[19] = dose: 50.0 mg/kg/injection, schedule: Q01DX005 (ip), vehicle: Klucel (hydroxypropylcellulose) (HPC)
[20] = dose: 100.0 mg/kg/injection, schedule: Q01DX005 (ip), vehicle: Klucel (hydroxypropylcellulose) (HPC)
[21] = dose: 200.0 mg/kg/injection, schedule: Q01DX005 (ip), vehicle: Klucel (hydroxypropylcellulose) (HPC)
[22] = dose: 100.0 mg/kg/injection, schedule: Q04DX003 (ip), vehicle: saline with Tween-80
[23] = dose: 200.0 mg/kg/injection, schedule: Q04DX003 (ip), vehicle: saline with Tween-80

Compound: COC(=O)N1C=CC2ON=C(S(=O)(=O)c3ccccc3)C2C1 (stereo not drawn)
- T/C [1]: 108 % of control
- T/C [2]: 95 % of control
- T/C [3]: 98 % of control

Compound: COc1ccc(/C(C)=C\C(=O)O)cc1
- T/C [4]: 90 % of control
- T/C [5]: 100 % of control
- T/C (dose: 400.0 mg/kg/injection, schedule: Q01DX009 (ip), vehicle: saline with Tween-80): 100 % of control

Compound: Nc1nc(N)c2nc3c(nc2n1)C(=O)N(c1ccc(C(=O)O)cc1)C3
- T/C [6]: 106 % of control
- T/C (dose: 12.5 mg/kg/injection, schedule: Q01DX009 (ip), vehicle: saline with Tween-80): 115 % of control
- T/C [7]: 117 % of control
- T/C [8]: 108 % of control

Compound: O=C1CC2C(O)OC(O)C(C1)N2C(=O)OCC(Cl)(Cl)Cl (stereo not drawn)
- T/C (dose: 6.25 mg/kg/injection, schedule: Q01DX005 (ip), vehicle: Klucel (hydroxypropylcellulose) (HPC)): 106 % of control
- T/C (dose: 12.5 mg/kg/injection, schedule: Q01DX005 (ip), vehicle: Klucel (hydroxypropylcellulose) (HPC)): 106 % of control
- T/C (dose: 25.0 mg/kg/injection, schedule: Q01DX005 (ip), vehicle: Klucel (hydroxypropylcellulose) (HPC)): 114 % of control

Compound: CC(=O)OCC1OC(n2cnc3c(=S)nc(N)[nH]c32)CC1OC(C)=O (stereo not drawn)
- T/C (dose: 1.25 mg/kg/injection, schedule: Q04DX003 (ip), vehicle: saline with Tween-80): 102 % of control
- T/C (dose: 2.5 mg/kg/injection, schedule: Q04DX003 (ip), vehicle: saline with Tween-80): 106 % of control
- T/C (dose: 5.0 mg/kg/injection, schedule: Q04DX003 (ip), vehicle: saline with Tween-80): 113 % of control and 123 % of control
- T/C (dose: 20.0 mg/kg/injection, schedule: Q04DX003 (ip), vehicle: saline with Tween-80): 156 % of control and 158 % of control and 159 % of control
- T/C (dose: 30.0 mg/kg/injection, schedule: Q04DX003 (ip), vehicle: saline with Tween-80): 174 % of control

Compound: CSc1cnnc2ccccc12
- T/C (dose: 12.5 mg/kg/injection, schedule: Q01DX009 (ip), vehicle: Klucel (hydroxypropylcellulose) (HPC)): 100 % of control and 95 % of control
- T/C (dose: 25.0 mg/kg/injection, schedule: Q01DX009 (ip), vehicle: Klucel (hydroxypropylcellulose) (HPC)): 100 % of control and 109 % of control and 88 % of control
- T/C (dose: 50.0 mg/kg/injection, schedule: Q01DX009 (ip), vehicle: Klucel (hydroxypropylcellulose) (HPC)): 100 % of control and 87 % of control

Compound: O=C(O)C(Nc1ccccn1)(c1ccccc1)c1ccccc1
- T/C (dose: 60.0 mg/kg/injection, schedule: Q01DX005 (ip), vehicle: Klucel (hydroxypropylcellulose) (HPC)): 102 % of control
- T/C (dose: 120.0 mg/kg/injection, schedule: Q01DX005 (ip), vehicle: Klucel (hydroxypropylcellulose) (HPC)): 102 % of control
- T/C (dose: 240.0 mg/kg/injection, schedule: Q01DX005 (ip), vehicle: Klucel (hydroxypropylcellulose) (HPC)): 98 % of control

Compound: CC1=C(/C=C/Cl)CC(Cl)C(C)(Cl)C1 (stereo not drawn)
- T/C (dose: 2.5 mg/kg/injection, schedule: Q01DX009 (ip), vehicle: Klucel (hydroxypropylcellulose) (HPC)): 102 % of control
- T/C (dose: 5.0 mg/kg/injection, schedule: Q01DX009 (ip), vehicle: Klucel (hydroxypropylcellulose) (HPC)): 102 % of control
- T/C (dose: 10.0 mg/kg/injection, schedule: Q01DX009 (ip), vehicle: Klucel (hydroxypropylcellulose) (HPC)): 93 % of control
- T/C (dose: 20.0 mg/kg/injection, schedule: Q01DX009 (ip), vehicle: Klucel (hydroxypropylcellulose) (HPC)): 99 % of control

Compound: COc1cc2ccccc2c2c1OP(=O)(O)Oc1c(OC)cc3ccccc3c1-2
- T/C [9]: 100 % of control
- T/C (dose: 200.0 mg/kg/injection, schedule: Q01DX001 (ip), vehicle: saline with Tween-80): 92 % of control
- T/C (dose: 400.0 mg/kg/injection, schedule: Q01DX001 (ip), vehicle: saline with Tween-80): 114 % of control

Compound: O=C1N/C(=N\c2nc3ccccc3s2)c2ccccc21
- T/C [6]: 88 % of control
- T/C [7]: 91 % of control
- T/C [4]: 86 % of control
- T/C [5]: 89 % of control

Compound: CC(=O)NCCCCCCCNC(C)=O
- T/C [10]: 104 % of control
- T/C [11]: 107 % of control
- T/C [12]: 96 % of control

Compound: CCCC(O)CNCc1ccnc2ccc(OC)cc12 (stereo not drawn)
- T/C [13]: 109 % of control
- T/C [14]: 98 % of control

Compound: CCOC1OCN(CCCN(C)C)CC1(C)C (stereo not drawn)
- T/C [8]: 108 % of control
- T/C [4]: 123 % of control
- T/C [5]: 123 % of control

Compound: COC(=O)C1=C(C)NC(C)=C(C(=O)OC)C1c1cc2ccccc2n2nnnc12
- T/C [1]: 95 % of control
- T/C [2]: 98 % of control
- T/C [3]: 88 % of control

Compound: O=C(O)CCc1c2ccc(=O)c(O)c-2oc2c(O)c(O)ccc12
- T/C [1]: 104 % of control
- T/C [2]: 98 % of control
- T/C [3]: 103 % of control

Compound: Nc1ccc2ccc(N)cc2c1
- T/C [15]: 105 % of control
- T/C [16]: 98 % of control and 104 % of control
- T/C [17]: 103 % of control and 113 % of control
- T/C [18]: 122 % of control and 123 % of control

Compound: COC(=O)CC(=O)C(C(=O)OC)C(CCc1ccccc1)C(C(=O)CC(=O)OC)C(=O)OC (stereo not drawn)
- T/C (dose: 25.0 mg/kg/injection, schedule: Q01DX001 (ip), vehicle: saline with Tween-80): 97 % of control
- T/C (dose: 50.0 mg/kg/injection, schedule: Q01DX001 (ip), vehicle: saline with Tween-80): 94 % of control
- T/C [9]: 94 % of control

Compound: Cc1cc2c(=O)[nH]c(N)nc2[nH]1
- T/C (dose: 12.5 mg/kg/injection, schedule: Q01DX009 (ip), vehicle: suspension in saline): 99 % of control
- T/C (dose: 25.0 mg/kg/injection, schedule: Q01DX009 (ip), vehicle: suspension in saline): 115 % of control
- T/C (dose: 50.0 mg/kg/injection, schedule: Q01DX009 (ip), vehicle: suspension in saline): 113 % of control and 116 % of control

Compound: O=S1(=O)Oc2c(Cl)cc(Cl)cc2S(=O)(=O)Oc2c(Cl)cc(Cl)cc21
- T/C [1]: 93 % of control
- T/C [2]: 94 % of control
- T/C [3]: 86 % of control

Compound: COc1ccc(/C=N/N2CN(C(C)C(=O)O)B(N(CCO)CCO)N=C2N)cc1OC (stereo not drawn)
- T/C [10]: 104 % of control
- T/C [11]: 107 % of control
- T/C [12]: 107 % of control

Compound: COc1cc(CN2CCN(CCO)CC2)c(O)c(CN2CCN(CCO)CC2)c1
- T/C [10]: 108 % of control
- T/C [11]: 108 % of control
- T/C [12]: 102 % of control

Compound: N#CCCNCCC[Si]12OCCN(CCO1)CCO2
- T/C [19]: 97 % of control
- T/C [20]: 100 % of control
- T/C [21]: 101 % of control and 103 % of control

Compound: O=C1C(Br)=Cc2cccc3cccc1c23
- T/C [7]: 100 % of control
- T/C [8]: 100 % of control
- T/C [4]: 100 % of control

Compound: CC(C)(C)[Si](C)(C)OCc1ccccc1N1C(=O)C(NC(=O)Cc2ccccc2)C1/C=C/c1ccccc1 (stereo not drawn)
- T/C [8]: 99 % of control
- T/C [4]: 94 % of control
- T/C [5]: 92 % of control

Compound: CN(C)CCC(=O)C(=C/C=C/c1ccccc1)C(=O)CCN(C)C
- T/C [15]: 100 % of control
- T/C [16]: 121 % of control
- T/C [17]: 123 % of control

Compound: O=C/C=C/N=c1ccn(O)cc1
- T/C [10]: 105 % of control
- T/C [11]: 100 % of control
- T/C [12]: 109 % of control

Compound: c1ccc(C2(c3ccccc3)CN3CCSC3=N2)cc1
- T/C (dose: 12.5 mg/kg/injection, schedule: Q04DX003 (ip), vehicle: saline with Tween-80): 104 % of control
- T/C (dose: 25.0 mg/kg/injection, schedule: Q04DX003 (ip), vehicle: saline with Tween-80): 103 % of control
- T/C (dose: 50.0 mg/kg/injection, schedule: Q04DX003 (ip), vehicle: saline with Tween-80): 99 % of control
- T/C [22]: 108 % of control
- T/C [23]: 103 % of control

Compound: O=[N+]([O-])c1ccc(N=Nc2ccccc2)cc1
- T/C [22]: 109 % of control
- T/C [23]: 100 % of control
- T/C (dose: 400.0 mg/kg/injection, schedule: Q04DX003 (ip), vehicle: saline with Tween-80): 100 % of control

Compound: Cc1cc(C)nc(NS(=O)(=O)c2ccc(NC(=S)Nc3ccccc3)cc2)n1
- T/C [16]: 96 % of control
- T/C [17]: 90 % of control
- T/C [18]: 91 % of control

Compound: O=C(C[N+]12CN3CN(CN(C3)C1)C2)c1ccc2c(c1)CCCC2
- T/C [19]: 100 % of control
- T/C [20]: 103 % of control
- T/C [21]: 106 % of control

Compound: CC1(C)CC(=O)C=C(NCCO)C1
- T/C [13]: 96 % of control
- T/C [14]: 91 % of control
- T/C (dose: 200.0 mg/kg/injection, schedule: Q01DX005 (ip), vehicle: saline): 96 % of control

Compound: CCC(C)C(NC(=O)c1ccccc1)C(=O)O (stereo not drawn)
- T/C [16]: 90 % of control
- T/C [17]: 106 % of control
- T/C [18]: 97 % of control

— PubChem BioAssay AID330 (DTP/NCI, 2004)
